From ChEMBL document CHEMBL1125575, “2-[(2-pyridylmethyl)sulfinyl]-1H-thieno[3,4-d]imidazoles. A novel class of gastric H+/K(+)-ATPase inhibitors” (J Med Chem, 1992)

How the values were obtained:
Oryctolagus cuniculus = organism: Oryctolagus cuniculus; experiment: cells; assay type: functional, organism-based, Stomach
Description: In vitro inhibition of 14C amino-pyrine uptake was determined in isolated rabbit gastric glands after dbcAMP stimulation

Rattus norvegicus = organism: Rattus norvegicus; experiment: animal or person; settings: Stomach, iv, read-out: Inhibition
animal or person = settings: Canis lupus familiaris, Stomach, iv, read-out: Inhibition
Canis familiaris = organism: Canis familiaris; experiment: animal or person; settings: Canis lupus familiaris, Stomach, intraduodenal, read-out: Inhibition
[1] = biological target: Potassium-transporting ATPase alpha chain 1 (Sus scrofa, UniProt P19156)
Chain of Potassium-transporting ATPase alpha chain 1 (P19156 whole entry): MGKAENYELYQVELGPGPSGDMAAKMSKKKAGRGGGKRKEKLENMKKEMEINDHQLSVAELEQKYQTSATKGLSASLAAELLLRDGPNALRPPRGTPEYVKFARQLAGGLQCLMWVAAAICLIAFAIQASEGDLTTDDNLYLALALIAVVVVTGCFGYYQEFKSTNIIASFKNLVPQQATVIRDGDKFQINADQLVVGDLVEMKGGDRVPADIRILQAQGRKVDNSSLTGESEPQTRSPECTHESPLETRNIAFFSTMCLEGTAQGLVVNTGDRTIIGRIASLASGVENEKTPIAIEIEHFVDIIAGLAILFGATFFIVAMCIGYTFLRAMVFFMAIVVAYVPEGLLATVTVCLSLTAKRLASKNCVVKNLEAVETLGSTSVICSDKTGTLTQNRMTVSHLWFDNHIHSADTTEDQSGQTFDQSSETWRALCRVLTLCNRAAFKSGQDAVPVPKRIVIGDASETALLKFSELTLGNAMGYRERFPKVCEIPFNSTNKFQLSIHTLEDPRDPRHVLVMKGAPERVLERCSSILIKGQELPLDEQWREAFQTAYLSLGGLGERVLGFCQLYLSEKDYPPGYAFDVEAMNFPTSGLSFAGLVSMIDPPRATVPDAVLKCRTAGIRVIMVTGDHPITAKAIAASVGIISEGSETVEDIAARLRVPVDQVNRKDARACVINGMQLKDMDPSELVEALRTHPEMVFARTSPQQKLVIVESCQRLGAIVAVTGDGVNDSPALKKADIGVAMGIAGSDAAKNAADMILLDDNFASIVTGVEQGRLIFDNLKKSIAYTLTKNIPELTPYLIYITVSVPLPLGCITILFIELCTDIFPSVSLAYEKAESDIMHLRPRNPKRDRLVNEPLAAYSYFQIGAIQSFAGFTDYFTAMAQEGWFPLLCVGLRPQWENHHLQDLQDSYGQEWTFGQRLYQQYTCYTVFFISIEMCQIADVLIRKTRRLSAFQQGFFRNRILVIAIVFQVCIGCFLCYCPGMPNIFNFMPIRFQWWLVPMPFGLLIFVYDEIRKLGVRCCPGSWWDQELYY
Description: In vitro inhibitory concentration against H+/K+ ATPase from pig stomach by probit analysis

Description for physchem: pKa value of the compound

Structure (SMILES) | IC50 (Oryctolagus cuniculus; Stomach) [µM] | inhibition in vivo at 0.5 mg/kg (Rattus norvegicus) [%] | inhibition in vivo at 0.3 mg/kg (animal or person) [%] | further results
[O-][S+](Cc1ccccn1)c1nc2c(-c3ccccc3)scc2[nH]1 (stereo not given) | 31 |  |  | 
COc1ccnc(C[S+]([O-])c2nc3cscc3[nH]2)c1 (stereo not given) | 19 | 82 | 84 | pKa (physchem): 4.16
COc1cc(C[S+]([O-])c2nc3cscc3[nH]2)ncc1Cl (stereo not given) | 31 | 58 | 38 | pKa (physchem): 3.44; inhibition in vivo at 1 mg/kg (Canis familiaris): 55%
Cc1c(OCC(F)(F)C(F)(F)F)ccnc1C[S+]([O-])c1nc2cscc2[nH]1 (stereo not given) | 0.5 | 72 | 64 | inhibition in vivo at 1 mg/kg (Canis familiaris): 45%
Cc1cccc(C[S+]([O-])c2nc3cscc3[nH]2)n1 (stereo not given) | 300 |  |  | 
Cc1sc(C)c2[nH]c([S+]([O-])Cc3cc(OCC(F)(F)C(F)(F)C(F)(F)F)ccn3)nc12 (stereo not given) | 26 |  |  | 
Cc1cnc(C[S+]([O-])c2nc3cscc3[nH]2)c(C)c1 (stereo not given) | 50 |  | 91 | 
Cc1cnc(C[S+]([O-])c2nc3cscc3[nH]2)cc1OCC(F)(F)F (stereo not given) | 1 | 69 | 83 | inhibition in vivo at 1 mg/kg (Canis familiaris): 92%
COc1ccnc(C[S+]([O-])c2nc3cscc3[nH]2)c1OC(F)(F)C(F)F (stereo not given) | 3 | 51 | 65 | inhibition in vivo at 1 mg/kg (Canis familiaris): 14%
CC(=O)c1scc2[nH]c([S+]([O-])Cc3cc(OCC(F)(F)F)ccn3)nc12 (stereo not given) | 32 |  |  | 
[O-][S+](Cc1nccc(OCC(F)(F)C(F)(F)F)c1Cl)c1nc2cscc2[nH]1 (stereo not given) | 10 |  |  | 
[O-][S+](Cc1cc(OCc2ccc(C(F)(F)F)cc2)ccn1)c1nc2cscc2[nH]1 (stereo not given) | 0.6 | 80 |  | pKa (physchem): 3.74; inhibition in vivo at 1 mg/kg (Canis familiaris): 94%
COc1c(OCc2cc(C(F)(F)F)cc(C(F)(F)F)c2)ccnc1C[S+]([O-])c1nc2cscc2[nH]1 (stereo not given) | 0.5 | 65 |  | 
COc1ccc(C[S+]([O-])c2nc3cscc3[nH]2)nc1 (stereo not given) | 1000 | 38 |  | 
COc1ccnc(C[S+]([O-])c2nc3c(C)sc(C)c3[nH]2)c1 (stereo not given) | 12 |  | 66 | 
[O-][S+](Cc1nccc(Oc2ccccc2)c1Cl)c1nc2cscc2[nH]1 (stereo not given) | 61 | 0 |  | 
CCCOc1ccnc(C[S+]([O-])c2nc3cscc3[nH]2)c1Cl (stereo not given) | 3 |  |  | 
COc1c(OCC(F)(F)C(F)(F)C(F)(F)F)ccnc1C[S+]([O-])c1nc2cscc2[nH]1 (stereo not given) |  | 70 |  | inhibition in vivo at 1 mg/kg (Canis familiaris): 66%; IC50 (Oryctolagus cuniculus): 1.1 µM; IC50 [1]: 7 µM
COCCOc1ccnc(C[S+]([O-])c2nc3cscc3[nH]2)c1Cl (stereo not given) |  | 63 |  | 
[O-][S+](Cc1ncccc1OC(F)F)c1nc2cscc2[nH]1 (stereo not given) | 1000 |  |  | 
COc1ccnc(C[S+]([O-])c2nc3cscc3[nH]2)c1OC (stereo not given) | 3.6 | 54 | 82 | 
[O-][S+](Cc1cc(OCC(F)(F)C(F)(F)F)c(Cl)cn1)c1nc2cscc2[nH]1 (stereo not given) |  | 38 |  | 
[O-][S+](Cc1cc(OCC(F)(F)C(F)(F)C(F)(F)C(F)F)ccn1)c1nc2cscc2[nH]1 (stereo not given) | 3 |  |  | IC50 [1]: 2 µM

Structure (SMILES) | IC50 (Oryctolagus cuniculus; Stomach) [µM] | inhibition in vivo at 0.5 mg/kg (Rattus norvegicus) [%] | inhibition in vivo at 0.3 mg/kg (animal or person) [%] | further results
Cc1sc(C)c2[nH]c([S+]([O-])Cc3cc(OCC(F)(F)C(F)(F)F)ccn3)nc12 (stereo not given) | 1 |  |  | 
COc1c(C)cnc(C[S+]([O-])c2nc3cscc3[nH]2)c1Cl (stereo not given) |  | 43 | 52 | 
CC(C)Oc1ccnc(C[S+]([O-])c2nc3cscc3[nH]2)c1Cl (stereo not given) | 1 | 80 | 87 | 
[O-][S+](Cc1cc(OCC(F)(F)C(F)(F)F)ccn1)c1nc2cscc2[nH]1 (stereo not given) | 1 | 81 |  | 
[O-][S+](Cc1cc(Oc2ccc(Cl)c(Cl)c2)ccn1)c1nc2cscc2[nH]1 (stereo not given) | 2.3 | 49 | 62 | 
[O-][S+](Cc1cc(OCC(F)(F)C(F)F)ccn1)c1nc2cscc2[nH]1 (stereo not given) | 2 | 89 | 66 | inhibition in vivo at 1 mg/kg (Canis familiaris): 91%
[O-][S+](Cc1ccc(Cl)cn1)c1nc2cscc2[nH]1 (stereo not given) | 1000 | 26 |  | 
COC(=O)c1sc2[nH]c([S+]([O-])Cc3ccccn3)nc2c1C(=O)OC (stereo not given) | 1000 |  |  | 
COc1cc(C[S+]([O-])c2nc3cscc3[nH]2)ncc1Br (stereo not given) | 19 | 62 | 59 | inhibition in vivo at 1 mg/kg (Canis familiaris): 53%
[O-][S+](Cc1cc(OCc2cc(Cl)cc(Cl)c2)ccn1)c1nc2cscc2[nH]1 (stereo not given) | 1.1 | 64 |  | 
COc1c(OCc2ccc(F)cc2)ccnc1C[S+]([O-])c1nc2cscc2[nH]1 (stereo not given) | 0.3 | 78 | 73 | inhibition in vivo at 1 mg/kg (Canis familiaris): 76%
COc1c(OCC(F)(F)C(F)(F)C(F)(F)C(F)F)ccnc1C[S+]([O-])c1nc2cscc2[nH]1 (stereo not given) | 1 | 64 |  | inhibition in vivo at 1 mg/kg (Canis familiaris): 63%; IC50 [1]: 12 µM
[O-][S+](Cc1cc(OCc2ccc(Cl)cc2)ccn1)c1nc2cscc2[nH]1 (stereo not given) | 0.4 | 78 |  | 
[O-][S+](Cc1cc(OCc2cc(C(F)(F)F)cc(C(F)(F)F)c2)ccn1)c1nc2cscc2[nH]1 (stereo not given) | 1.1 | 43 |  | inhibition in vivo at 1 mg/kg (Canis familiaris): 87%
COc1ccnc(C[S+]([O-])c2nc3cscc3[nH]2)c1C (stereo not given) | 1000 |  |  | 
Cc1ccc(C[S+]([O-])c2nc3c(C)sc(C)c3[nH]2)nc1 (stereo not given) | 6 | 58 | 46 | 
COC(=O)c1sc2[nH]c([S+]([O-])Cc3cc(OC)ccn3)nc2c1C(=O)OC (stereo not given) | 1000 |  |  | 
[O-][S+](Cc1nccc(OCC(F)(F)F)c1OCC(F)(F)F)c1nc2cscc2[nH]1 (stereo not given) | 0.8 | 35 | 13 | inhibition in vivo at 1 mg/kg (Canis familiaris): 45%
[O-][S+](Cc1cc(OCc2ccc(F)cc2F)ccn1)c1nc2cscc2[nH]1 (stereo not given) | 1 | 76 |  | 
[O-][S+](Cc1cc(OC(C(F)(F)F)C(F)(F)F)ccn1)c1nc2cscc2[nH]1 (stereo not given) | 195 | 39 |  | pKa (physchem): 3.5
CCOc1ccnc(C[S+]([O-])c2nc3cscc3[nH]2)c1 (stereo not given) | 3 |  |  | pKa (physchem): 3.92
COc1c(OCc2ccc(C(F)(F)F)cc2)ccnc1C[S+]([O-])c1nc2cscc2[nH]1 (stereo not given) | 0.5 | 51 |  | inhibition in vivo at 1 mg/kg (Canis familiaris): 91%
Cc1sc(C)c2[nH]c([S+]([O-])Cc3nccc(OC(C)C)c3Cl)nc12 (stereo not given) | 2.5 | 32 |  | 

Structure (SMILES) | IC50 (Oryctolagus cuniculus; Stomach) [µM] | inhibition in vivo at 0.5 mg/kg (Rattus norvegicus) [%] | inhibition in vivo at 0.3 mg/kg (animal or person) [%] | further results
[O-][S+](Cc1cc(OCC(F)(F)F)ccn1)c1nc2cscc2[nH]1 (stereo not given) | 3 | 96 | 62 | pKa (physchem): 3.83; inhibition in vivo at 1 mg/kg (Canis familiaris): 73%
[O-][S+](Cc1cc(Oc2ccc(Cl)cc2)ccn1)c1nc2cscc2[nH]1 (stereo not given) | 2 | 66 | 76 | 
[O-][S+](Cc1ncccc1OCC(F)(F)F)c1nc2cscc2[nH]1 (stereo not given) | 120 | 23 |  | 
[O-][S+](Cc1cc(OC(F)F)ccn1)c1nc2cscc2[nH]1 (stereo not given) |  |  |  | IC50 (Oryctolagus cuniculus): 1000 µM
COc1ccnc(C[S+]([O-])c2nc3ccsc3[nH]2)c1 (stereo not given) | 1000 |  |  | 
[O-][S+](Cc1ncccc1Cl)c1nc2cscc2[nH]1 (stereo not given) | 1 |  |  | 
[O-][S+](Cc1ncccc1F)c1nc2cscc2[nH]1 (stereo not given) | 1000 |  |  | 
[O-][S+](Cc1cc(Oc2ccc(F)cc2F)ccn1)c1nc2cscc2[nH]1 (stereo not given) | 0.3 | 56 | 74 | 
COc1ccnc(C[S+]([O-])c2nc3cscc3[nH]2)c1Br (stereo not given) | 2 | 71 | 73 | pKa (physchem): 3.52; inhibition in vivo at 1 mg/kg (Canis familiaris): -11%
CCCCOc1ccnc(C[S+]([O-])c2nc3cscc3[nH]2)c1 (stereo not given) | 1 | 81 | 87 | 
COc1c(C)cnc(C[S+]([O-])c2nc3cscc3[nH]2)c1C (stereo not given) | 1000 |  |  | 
CCOc1ccnc(C[S+]([O-])c2nc3cscc3[nH]2)c1Cl (stereo not given) | 2 |  |  | 
[O-][S+](Cc1cc(OCc2ccccc2)ccn1)c1nc2cscc2[nH]1 (stereo not given) | 0.5 |  |  | 
Cc1sc(C)c2[nH]c([S+]([O-])Cc3cc(OCC(F)(F)F)ccn3)nc12 (stereo not given) | 3.7 |  | 54 | IC50 [1]: 2 µM
[O-][S+](Cc1cc(Oc2ccc(F)cc2)ccn1)c1nc2cscc2[nH]1 (stereo not given) | 4 | 84 | 85 | inhibition in vivo at 1 mg/kg (Canis familiaris): 97%
COc1c(C)cnc(C[S+]([O-])c2nc3c(-c4ccccc4)scc3[nH]2)c1C (stereo not given) | 4.2 | 46 |  | inhibition in vivo at 1 mg/kg (Canis familiaris): 39%
[O-][S+](Cc1nccc(OCC(F)(F)F)c1Cl)c1nc2cscc2[nH]1 (stereo not given) | 1000 |  |  | 
Cc1cccnc1C[S+]([O-])c1nc2cscc2[nH]1 (stereo not given) | 25 |  |  | 
[O-][S+](Cc1cc(Oc2cccc(C(F)(F)F)c2)ccn1)c1nc2cscc2[nH]1 (stereo not given) | 2.2 | 64 |  | inhibition in vivo at 1 mg/kg (Canis familiaris): 66%
Cc1sc(C)c2[nH]c([S+]([O-])Cc3ccccn3)nc12 (stereo not given) | 15 |  |  | 
[O-][S+](Cc1cc(OCc2cc(F)cc(F)c2)ccn1)c1nc2cscc2[nH]1 (stereo not given) | 0.7 | 70 |  | inhibition in vivo at 1 mg/kg (Canis familiaris): 96%
COc1ccc(-c2scc3[nH]c([S+]([O-])Cc4ncc(C)c(OC)c4C)nc23)cc1 (stereo not given) | 3 | 24 |  | 
